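Growth conditions: 96-well plates. Treatment: test compound, 48 hours, 5 concentrations. Analysis: linear interpolation between bracketing concentrations; unreached endpoints set to highest concentration. At the GI50, growth is halved. TGI marks complete inhibition of growth.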
Key:
Test in all cases: DTP human tumour cell line panel, 48 h
786-0 renal = test system: 786-0 renal
A498 renal = test system: A498 renal
A549 NSCLC = test system: A549 NSCLC
ACHN renal = test system: ACHN renal
COLO 205 colon = test system: COLO 205 colon
DU-145 prostate = test system: DU-145 prostate
EKVX NSCLC = test system: EKVX NSCLC
HCT-15 colon = test system: HCT-15 colon
HL-60(TB) leukemia = test system: HL-60(TB) leukemia
HOP-62 NSCLC = test system: HOP-62 NSCLC
HOP-92 NSCLC = test system: HOP-92 NSCLC
HS 578T breast = test system: HS 578T breast
HT29 colon = test system: HT29 colon
MALME-3M melanoma = test system: MALME-3M melanoma
MCF7 breast = test system: MCF7 breast
MDA-MB-231 breast = test system: MDA-MB-231 breast
NCI-H23 lung = test system: NCI-H23 lung
NCI-H460 lung = test system: NCI-H460 lung
NCI-H522 lung = test system: NCI-H522 lung
NCI/ADR-RES ovarian = test system: NCI/ADR-RES ovarian
OVCAR-3 ovarian = test system: OVCAR-3 ovarian
OVCAR-5 ovarian = test system: OVCAR-5 ovarian
PC-3 prostate = test system: PC-3 prostate
RPMI-8226 leukemia = test system: RPMI-8226 leukemia
RXF 393 renal = test system: RXF 393 renal
SF-295 CNS = test system: SF-295 CNS
SF-539 CNS = test system: SF-539 CNS
SK-MEL-2 melanoma = test system: SK-MEL-2 melanoma
SK-MEL-28 melanoma = test system: SK-MEL-28 melanoma
SK-OV-3 ovarian = test system: SK-OV-3 ovarian
SN12C renal = test system: SN12C renal
SNB-75 CNS = test system: SNB-75 CNS
T-47D breast = test system: T-47D breast
TK-10 renal = test system: TK-10 renal
U251 CNS = test system: U251 CNS
UACC-257 melanoma = test system: UACC-257 melanoma
UACC-62 melanoma = test system: UACC-62 melanoma
UO-31 renal = test system: UO-31 renal

COC(=O)c1ccc(NC(N)=NCC(C)(C)COc2ccc(C(F)(F)F)cc2)nc1
GI50 (786-0 renal): 1.46 µM | TGI (786-0 renal): 2.83 µM | GI50 (A498 renal): 1.94 µM | TGI (A498 renal): 5.82 µM | GI50 (A549 NSCLC): 1.63 µM | TGI (A549 NSCLC): 3.17 µM | GI50 (ACHN renal): 1.59 µM | TGI (ACHN renal): 2.93 µM | GI50 (COLO 205 colon): 1.63 µM | TGI (COLO 205 colon): 3.23 µM | GI50 (DU-145 prostate): 1.7 µM | TGI (DU-145 prostate): 3.2 µM | GI50 (EKVX NSCLC): 1.43 µM | TGI (EKVX NSCLC): 3.41 µM | GI50 (HCT-15 colon): 1.56 µM | TGI (HCT-15 colon): 3.08 µM | GI50 (HL-60(TB) leukemia): 1.79 µM | TGI (HL-60(TB) leukemia): 3.56 µM | GI50 (HOP-62 NSCLC): 1.67 µM | TGI (HOP-62 NSCLC): 3.2 µM | GI50 (HOP-92 NSCLC): 1.23 µM | TGI (HOP-92 NSCLC): 2.57 µM | GI50 (HS 578T breast): 1.97 µM | TGI (HS 578T breast): 4.33 µM | GI50 (HT29 colon): 1.66 µM | TGI (HT29 colon): 3.21 µM | GI50 (MALME-3M melanoma): 1.72 µM | TGI (MALME-3M melanoma): 3.48 µM | GI50 (MCF7 breast): 1.52 µM | TGI (MCF7 breast): 3.28 µM | GI50 (MDA-MB-231 breast): 1.7 µM | TGI (MDA-MB-231 breast): 3.39 µM | GI50 (NCI-H23 lung): 1.45 µM | TGI (NCI-H23 lung): 3.09 µM | GI50 (NCI-H460 lung): 1.67 µM | TGI (NCI-H460 lung): 3.36 µM | GI50 (NCI-H522 lung): 1.6 µM | TGI (NCI-H522 lung): 3.23 µM | GI50 (NCI/ADR-RES ovarian): 1.68 µM | TGI (NCI/ADR-RES ovarian): 3.34 µM | GI50 (OVCAR-3 ovarian): 1.64 µM | TGI (OVCAR-3 ovarian): 3.17 µM | GI50 (OVCAR-5 ovarian): 1.6 µM | TGI (OVCAR-5 ovarian): 3.08 µM | GI50 (PC-3 prostate): 1.38 µM | TGI (PC-3 prostate): 2.75 µM | GI50 (RPMI-8226 leukemia): 1.3 µM | TGI (RPMI-8226 leukemia): 3.64 µM | GI50 (RXF 393 renal): 1.49 µM | TGI (RXF 393 renal): 2.96 µM | GI50 (SF-295 CNS): 1.61 µM | TGI (SF-295 CNS): 3.04 µM | GI50 (SF-539 CNS): 1.71 µM | TGI (SF-539 CNS): 3.13 µM | GI50 (SK-MEL-2 melanoma): 1.86 µM | TGI (SK-MEL-2 melanoma): 3.47 µM | GI50 (SK-MEL-28 melanoma): 1.64 µM | TGI (SK-MEL-28 melanoma): 3.08 µM | GI50 (SK-OV-3 ovarian): 1.8 µM | TGI (SK-OV-3 ovarian): 3.45 µM | GI50 (SN12C renal): 1.79 µM | TGI (SN12C renal): 3.41 µM | GI50 (SNB-75 CNS): 1.57 µM | TGI (SNB-75 CNS): 3.27 µM | GI50 (T-47D breast): 1.37 µM | TGI (T-47D breast): 3.21 µM | GI50 (TK-10 renal): 1.57 µM | TGI (TK-10 renal): 3 µM | GI50 (U251 CNS): 1.61 µM | TGI (U251 CNS): 3.05 µM | GI50 (UACC-257 melanoma): 1.69 µM | TGI (UACC-257 melanoma): 3.27 µM | GI50 (UACC-62 melanoma): 1.66 µM | TGI (UACC-62 melanoma): 3.1 µM | GI50 (UO-31 renal): 1.35 µM | TGI (UO-31 renal): 2.7 µM

— PubChem BioAssay (NCI)
